# Earlier results as cited in US11376295B2, “Method for preparing Rhus verniciflua stokes extract containing increased fisetin content, and metastasis-inhibiting anticancer agent composition containing same” (MEDIENCE CO.,LTD, priority 2018, dated 2022).
# Conditions: among flavonoids of the Rhus verniciflua Stokes extract; result of research, background
row,Structure (SMILES),anticancer activity
1,O=c1c(O)c(-c2ccc(O)c(O)c2)oc2cc(O)ccc12 [fisetin],highest anticancer activity
2,O=C1c2ccc(O)cc2O[C@H](c2ccc(O)c(O)c2)[C@H]1O [fustin],low anticancer activity
